US7022696B2, “Piperazino-derivatives and their use as PDE4 inhibitor” (Altana Pharma AG, priority 2001, dated 2006)
Structures can show the parent of a compound that is named as a salt.

Compound | melting point
COc1ccc(C2=NN(c3ccc(C(=O)N4CCN(c5ccccc5)CC4)cc3)C(=O)[C@@H]3CC=CC[C@H]23)c2c1OC(C)(C)C2 [Compound 10, (4aS,8aR)-4-(7-Methoxy-2,2-dimethyl-2,3-dihydro-benzofuran-4-yl)-2-{4-[1-(4-phenyl-piperazin-1-yl)-methanoyl]-phenyl}-4a,5,8,8a-tetrahydro-2H-phthalazin-1-one] | 185 to 186 °C
COc1ccc(C2=NN(Cc3ccc(C(=O)N4CCN(c5cnccn5)CC4)cc3)C(=O)[C@H]3CC=CC[C@@H]23)c2c1OC(C)(C)C2.Cl.Cl (relative stereo) | 124 to 126 °C
CCOc1ccc(C2=NN(c3ccc(C(=O)N4CCN(C5CCN(C)CC5)CC4)cc3)C(=O)[C@@H]3CC=CC[C@H]23)cc1OCC.Cl.Cl [Compound 28, (4aS,8aR)-4-(3,4-Diethoxy-phenyl)-2-(4-{1-[4-(1-methyl-piperidin-4-yl)-piperazin-1-yl]-methanoyl}-phenyl)-4a,5,8,8a-tetrahydro-2H-phthalazin-1-one dihydrochloride] | 275 °C (dec.)
CCOc1ccc(C2=NN(c3ccc(C(=O)N4CCN(c5ccccn5)CC4)cc3)C(=O)[C@@H]3CC=CC[C@H]23)cc1OCC [Compound 2, (4aS,8aR)-4-(3,4-Diethoxyphenyl)-2-{4-[1-(4-pyridin-2-yl-piperazin-1-yl)-methanoyl]-phenyl}-4a,5,8,8a-tetrahydro-2H-phthalazin-1-one] | 183 to 184 °C
COc1ccc(C2=NN(c3ccc(C(=O)N4CCN(c5nc(-c6ccccc6C)ns5)CC4)cc3)C(=O)[C@@H]3CC=CC[C@H]23)cc1OC.Cl [Compound 19, (4aS,8aR)-4-(3,4-Dimethoxyphenyl)-2-(4-{1-[4-(3-o-tolyl-1,2,4-thiadiazol-5-yl)-piperazin-1-yl]-methanoyl}-phenyl)-4a,5,8,8a-tetrahydro-2H-phthalazin-1-one hydrochloride] | 115 to 118 °C
CCOc1ccc(C2=NN(c3ccc(C(=O)N4CCN(c5ccc(C(F)(F)F)cn5)CC4)cc3)C(=O)[C@@H]3CC=CC[C@H]23)cc1OCC [Compound 29, (4aS,8aR)-4-(3,4-Diethoxy-phenyl)-2-(4-{1-[4-(5-trifluoromethyl-pyridin-2-yl)-piperazin-1-yl]-methanoyl}-phenyl)-4a,5,8,8a-tetrahydro-2H-phthalazin-1-one] | 121 to 123 °C
CCOc1ccc(C2=NN(c3ccc(C(=O)N4CCN(c5ccncc5)CC4)cc3)C(=O)[C@@H]3CC=CC[C@H]23)cc1OCC.Cl [Compound 27, (4aS,8aR)-4-(3,4-Diethoxy-phenyl)-2-{4-[1-(4-pyridin-4-yl-piperazin-1-yl)-methanoyl]-phenyl}-4a,5,8,8a-tetrahydro-2H-phthalazin-1-one hydrochloride] | 164 to 167 °C
CCOc1ccc(C2=NN(c3ccc(C(=O)N4CCN(c5cc(C)nc6ccccc56)CC4)cc3)C(=O)[C@@H]3CC=CC[C@H]23)cc1OCC.Cl [Compound 26, (4aS,8aR)-4-(3,4-Diethoxy-phenyl)-2-(4-{1-[4-(2-methyl-quinolin-4-yl)-piperazin-1-yl]-methanoyl}-phenyl)-4a,5,8,8a-tetrahydro-2H-phthalazin-1-one hydrochloride] | 203 to 206 °C (dec.)

Now from value to compound:

melting point | Compound
168 to 169 °C | COc1ccc(C2=NN(c3ccc(C(=O)N4CCN(CC(=O)N5CCOCC5)CC4)cc3)C(=O)[C@@H]3CC=CC[C@H]23)cc1OC.Cl
223 to 226 °C | COc1ccc(C2=NN(c3ccc(C(=O)N4CCN(CCCN(C)C)CC4)cc3)C(=O)[C@@H]3CC=CC[C@H]23)cc1OC.Cl.Cl [Compound 13, (4aS,8aR)-4-(3,4-Dimethoxyphenyl)-2-(4-{1-[4-(3-dimethylamino-propyl)-piperazin-1-yl]-methanoyl}-phenyl)-4a,5,8,8a-tetrahydro-2H-phthalazin-1-one dihydrochloride]
262 °C (dec.) | COc1ccc(C2=NN(c3ccc(C(=O)N4CCN(CCCN(C)C)CC4)cc3)C(=O)[C@@H]3CC=CC[C@H]23)c2c1OC(C)(C)C2.Cl.Cl [Compound 11, (4aS,8aR)-2-(4-{1-[4-(3-Dimethylamino-propyl)-piperazin-1-yl]-methanoyl}-phenyl)-4-(7-methoxy-2,2-dimethyl-2,3-dihydro-benzofuran-4-yl)-4a,5,8,8a-tetrahydro-2H-phthalazin-1-one dihydrochloride]
143 to 144 °C | CCOc1ccc(C2=NN(c3ccc(C(=O)N4CCN(C=O)CC4)cc3)C(=O)[C@@H]3CC=CC[C@H]23)cc1OCC [Compound 5, 4-(1-{4-[(4aS,8aR)-4-(3,4-Diethoxyphenyl)-1-oxo-4a,5,8,8a-tetrahydro-1H-phthalazin-2-yl]-phenyl}-methanoyl)-piperazine-1-carbaldehyde]
245 °C (dec.) | COc1ccc(C2=NN(c3ccc(C(=O)N4CCN(CCN(C)C)CC4)cc3)C(=O)C3CC=CCC23)c2c1OC(C)(C)C2 (as salt: hydrochloride) [Compound 14, (4aS,8aR)-2-{4-[4-(2-Dimethylamino-ethyl)-piperazine-1-carbonyl]-phenyl}-4-(7-methoxy-2,2-dimethy-2,3-dihydro-benzofuran-4-yl)-4a,5,8,8a-tetrahydro-2H-phthalazin-1-one dihydrochloride]
131 to 133 °C | CCOc1ccc(C2=NN(c3ccc(C(=O)N4CCN(CC5CCCO5)CC4)cc3)C(=O)[C@@H]3CC=CC[C@H]23)cc1OCC.Cl (stereo partly drawn) [Compound 23, (4aS,8aR)-4-(3,4-Diethoxy-phenyl)-2-(4-{1-[4-(tetrahydro-furan-2-ylmethyl)-piperazin-1-yl]-methanoyl}-phenyl)-4a,5,8,8a-tetrahydro-2H-phthalazin-1-one hydrochloride]
